Reference: patent publication US20080175801A1, “Stable peroxide containing personal care compositions” (The Procter & Gamble Company, priority 2007, published 2008)
Like-named read-outs stand apart in the source and are kept apart here. Blank lines part the entries; values can stand above or below the compound they belong to.

Assay: Accelerated stability of flavor components in peroxide mouthrinse, measured by gas chromatography
Format: physicochemical
Conditions: for % Reduction at day 17, Formula IA / % Reduction at day 31, Formula IA: Formula IA with Glass H polyphosphate radical scavenger; for % Reduction at day 17, Formula IA / % Reduction at day 31, Formula IA / % Reduction at day 17, Formula IB / % Reduction at day 31, Formula IB / % Reduction at day 17, Treated / % Reduction at day 31, Treated / % Reduction at day 17, Untreated / % Reduction at day 31, Untreated: component at 0.005%; for % Reduction at day 17, Formula IB / % Reduction at day 31, Formula IB: no radical scavenger, not treated to remove metals; for % Reduction at day 17, Treated / % Reduction at day 31, Treated: formulation IB treated with polymer supported chelant; for % Reduction at day 17, Treated / % Reduction at day 31, Treated / % Reduction at day 17, Untreated / % Reduction at day 31, Untreated: vs day 0; for % Reduction at day 17, Untreated / % Reduction at day 31, Untreated: formulation IB untreated
Protocol: The stability of the present compositions was assessed by measuring any changes in levels of peroxide, active component (cetylpyridinium chloride) and flavor components under storage conditions at 40° C. and 75% Relative Humidity.
A flavor mix consisting of Ethylbutyrate, Limonene, Decanal, Methylsalicylate, Carvone and Anethole (each flavor component at 0.005%) was added to the compositions. The resulting mouthrinse formulations were packaged in 500 ml PET bottles and placed on accelerated stability test chamber at 40° C. and 75% Relative Humidity conditions. The amount of peroxide in the samples was measured using the method described above and no significant changes were detected. However, radical activity was greater in the untreated sample vs. the treated sample as evidenced in greater degradation of flavor components in the untreated sample. The amount of each flavor component at time 0, 17 and 31 days was evaluated by gas chromatography (GC). Results are summarized in Table 2 below showing % reduction of each component and total flavor at days 17 and 31 from day 0. […] The treatment also […].
Formulation IA with Glass H polyphosphate as radical scavenger was compared with a sample of formulation IB (no radical scavenger) that was not treated to remove metals. […] The resulting mouthrinse formulations were packaged in 500 ml PET bottles and placed on accelerated stability test chamber at 40° C. and 75% Relative Humidity. The amount of each flavor component at time 0, 17 and 31 days were measured by gas chromatography (GC).

Effect of polyphosphate radical scavenger on stability of flavor component: increased stability
Stability of flavor component in the presence of peroxide: significant decomposition
% Reduction at day 17, Formula IA (40° C., 75% RH): 60%
% Reduction at day 31, Formula IA (40° C., 75% RH): 80%
% Reduction at day 17, Formula IB (40° C., 75% RH): 100%
% Reduction at day 31, Formula IB (40° C., 75% RH): 100%
% Reduction at day 17, Treated (40° C., 75% RH): 60%
% Reduction at day 31, Treated (40° C., 75% RH): 80%
% Reduction at day 17, Untreated (40° C., 75% RH): 100%
% Reduction at day 31, Untreated (40° C., 75% RH): 100%
SMILES: CC=Cc1ccc(OC)cc1 [Anethole]

% Reduction at day 17, Formula IA (40° C., 75% RH): 50%
% Reduction at day 31, Formula IA (40° C., 75% RH): 50%
% Reduction at day 17, Formula IB (40° C., 75% RH): 20%
% Reduction at day 31, Formula IB (40° C., 75% RH): 20%
% Reduction at day 17, Treated (40° C., 75% RH): 20%
% Reduction at day 31, Treated (40° C., 75% RH): 20%
% Reduction at day 17, Untreated (40° C., 75% RH): 20%
% Reduction at day 31, Untreated (40° C., 75% RH): 20%
SMILES: C=C(C)C1CC=C(C)C(=O)C1 (stereo not drawn) [Carvone]

Stability of flavor component in the presence of peroxide: relatively stable
SMILES: COC(=O)c1ccccc1O [Methylsalicylate]

Continued, compound first:

SMILES: CCCCCCCCCC=O [Decanal]
Effect of polyphosphate radical scavenger on stability of flavor component: increased stability
Stability of flavor component in the presence of peroxide: significant decomposition
% Reduction at day 17, Formula IA (40° C., 75% RH): 20%
% Reduction at day 31, Formula IA (40° C., 75% RH): 40%
% Reduction at day 17, Formula IB (40° C., 75% RH): 80%
% Reduction at day 31, Formula IB (40° C., 75% RH): 80%
% Reduction at day 17, Treated (40° C., 75% RH): 25%
% Reduction at day 31, Treated (40° C., 75% RH): 75%
% Reduction at day 17, Untreated (40° C., 75% RH): 80%
% Reduction at day 31, Untreated (40° C., 75% RH): 80%

SMILES: CCCC(=O)OCC [Ethylbutyrate]
Effect of polyphosphate radical scavenger on stability of flavor component: increased stability
% Reduction at day 17, Formula IA (40° C., 75% RH): 0%
% Reduction at day 31, Formula IA (40° C., 75% RH): 0%
% Reduction at day 17, Formula IB (40° C., 75% RH): 20%
% Reduction at day 31, Formula IB (40° C., 75% RH): 20%
% Reduction at day 17, Treated (40° C., 75% RH): 25%
% Reduction at day 31, Treated (40° C., 75% RH): 25%
% Reduction at day 17, Untreated (40° C., 75% RH): 20%
% Reduction at day 31, Untreated (40° C., 75% RH): 20%

SMILES: C=C(C)[C@H]1CC=C(C)CC1 [Limonene]
% Reduction at day 17, Formula IA (40° C., 75% RH): 25%
% Reduction at day 31, Formula IA (40° C., 75% RH): 25%
% Reduction at day 17, Formula IB (40° C., 75% RH): 100%
% Reduction at day 31, Formula IB (40° C., 75% RH): 100%
% Reduction at day 17, Treated (40° C., 75% RH): 75%
% Reduction at day 31, Treated (40° C., 75% RH): 75%
% Reduction at day 17, Untreated (40° C., 75% RH): 100%
% Reduction at day 31, Untreated (40° C., 75% RH): 100%
Effect of polyphosphate radical scavenger on stability of flavor component (in words, formulation IA vs untreated IB, 40° C., 75% RH): increased stability
Stability of flavor component in the presence of peroxide (in words, formulation IB, 40° C., 75% RH): significant decomposition
